Data reported in PMC3514216, “SRC Homology 2 Domain Binding Sites in Insulin, IGF-1 and FGF receptor mediated signaling networks reveal an extensive potential interactome” (Cell Communication and Signaling : CCS, 2012).

Test system: panel of 50 SH2 domains
Assay: SPOT peptide array probed with each of 50 GST-SH2 domains
Assay type: binding
Details: SPOT192 peptide array; for SH2 Domains >3X: list of GST-SH2 domains with spot intensity >3X array mean (array-positive); for 2X < SH2 Domains < 3X: list of GST-SH2 domains with spot intensity between 2X and 3X array mean (indeterminate range)
Description: The use of addressable peptide arrays is a reproducible and semi-quantitative approach that has been extensively validated for studying protein interactions with peptide ligands. To investigate connections between SH2 domain proteins and their putative phosphorylated docking sites on cell surface receptors, we developed addressable arrays consisting of 192 phosphotyrosine peptides. This peptide set was assembled using 71 phosphotyrosine peptide motifs corresponding to all of the cytoplasmic tyrosine residues within the FGF receptors (FGFR1-4), insulin receptor (InsR) and IGF-1 receptor (IGF-1R) (Figure 1A). Activation of these receptors results in the phosphorylation of associated scaffold proteins, and so 75 phosphotyrosine peptides corresponding to a comprehensive list of tyrosine residues within insulin receptor substrates (IRS-1 and IRS-2) and fibroblast receptor substrates (FRS-2 and FRS-3) were included. In addition, 33 phosphotyrosine peptides were incorporated from the downstream signaling proteins PLC-γ1, p130Cas (BCAR1) and p62DOK1. […] These control peptides provide a reference and establish the empirical cut-off for designated binding interactions (Table 1). No discrimination was made against peptides on the basis of reported phosphorylation state in order to examine a diverse and unbiased set of motifs. The resulting set of 192 phosphotyrosine peptides and their corresponding position in the proteins of origin is noted in Additional file 1: Table S1. Addressable arrays were synthesized as membrane-bound 11-mer peptides using the SPOT synthesis technique. While the majority of SH2 domains recognize residues C-terminal to the phosphotyrosine in their cognate peptide ligands, additional contacts between SH2 domains and residues N-terminal to the phosphotyrosine are observed for the SH2 domain of Sh2d1a (SAP) and cannot be ruled out in other cases. Peptides were synthesized with six flanking residues C-terminal to the phosphotyrosine and four residues N-terminal to the phosphotyrosine.
To assess the potential network of SH2 domain interactions we selected 50 SH2 domains representing 28 of the 38 families of SH2 domains (Figure 1B) all of which we have previously shown can be expressed and purified. These include a number of extensively studied SH2 domains (Src, Grb2, PLCγ), as well as a number of less studied SH2 domains from proteins such as Shd, She, Shf, Slnk (Sh2d6), Sh2d1a (SAP), Sh2d1b (Eat-2), and Brdg1. To address potential variability in specificity within families we employed all members from the SHB, CRK, GRB2, SRC and ABL families (families are indicated with complete Capitalized lettering).
SH2 domains were arrayed as GST fusion proteins and detected using anti-GST primary antibodies and near-infrared labeled secondary antibodies. In an effort to present a dataset with minimal false positives, we chose an empirical cutoff based on the array average across all peptide spots to classify interactions (Figure 1A). In cases where the intensity of the signal for an individual SH2-domain binding event exceeded the mean intensity of all the peptides on the membrane by three-fold were scored as “array positives” [22]. Non-binding was judged in cases where the intensity of a spot was less than the mean intensity of all spots on the membrane and these were scored as “array negatives”. Peptides with signal intensities between 1X and 3X mean were scored as “indeterminate” and ascribed as neither array positive binding interactions nor array-negative non-binders. […] This signature may be indicative of promiscuity differences between phosphopeptides or there may be a subset of peptides which interact in a nonspecific fashion with either the GST fusion tag or one of the antibodies used for detection, resulting in false positives. […]

Row | Substance | SH2 Domains >3X | 2X < SH2 Domains < 3X
1 | AEPDpYGALYEG [H01] | FGR, FYN, HCK, LYN, SH2D1B, SHC1, SHIP1, SLNK, SRC, YES, ZAP70_N | BLK, BMX, LCK
2 | SLDEpYGSSPGD [D09] | SLNK | BLK, LCK
3 | RGMEYpLASKKA [E12] | BCAR3, BRDG1, TENC1, ZAP70_N | BMX, FER, MIST, PLCG2_N, SHB, SHF
4 | DSDQpYVLMSSP [D23] | FYN, LYN, PI3K1_N, PI3K1_C, SHIP1 | BLK, FGR, LCK, SH2D1B
5 | VSCTpYQLARGM [E23] | BRDG1, MIST, PLCG2_N, SHF | ITK, PLCG2_C, SHB
6 | NLREpYLRARRP [E20] | BCAR3, BMX, BRDG1, MIST, PLCG2_N, RIN1, SHF, SHD, TENC1 | BRK, DAPP1, FER, PI3K1_N, PLCG2_C, PTPN11_C, Sh2b, SHB
7 | RKVGpYLRKPKS [B18] | BCAR3, BMX, BRDG1, BRK, FER, PI3K1_N, RIN1, TENC1 | MATK, MIST, PLCG2_N, PTPN11_C, SHB, SHF, SHD
8 | EDYDpYVHLQGK [H13] | FYN, LCK, LYN, MIST | BLK, SH2D1B, SHC1
9 | ALLNpYENLPSL [G05] | ABL1, ABL2, CRK, FER, GADS, GRAP, GRB2, GRB7, PI3K1_C, SH2D2A, SH3BP2, TENC1 | BRK, PI3K1_N
10 | LGPLpYASSNPE [A18] | ZAP70_N | –
11 | AKHKpYLIALYT [D02] | BRDG1, BRK | BCAR3, BMX, FER, PLCG2_N, PTPN11_C, RIN1, SHF, TENC1
12 | YKAPpYTAGGDS [D22] | MIST | –
13 | DPNGpYMMMSPS [C07] | PI3K1_C | –
14 | QQGLpYQVPGPS [H07] | CRK, CRKL | –
15 | IGSIpYLFLRKR [A17] | BCAR3, BMX, BRDG1, BRK, DAPP1, FER, MATK, MIST, PI3K1_N, PLCG2_N, PTPN11_N, PTPN11_C, RASA1_C, RIN1, Sh2b, SHB, SHF, SHD, TENC1 | FGR, GRB2, PI3K1_C, PLCG2_C, SH3BP2, SHE, SYK_C
16 | VSCApYQVARGM [E11] | BRDG1 | CRK, ITK, MIST, PLCG2_N, SHB, SHF
17 | RRYGpYDSNLFS [F23] | ABL1, BCAR3, BMX, BRDG1, CRK, CRKL, FER, MATK, SHB, SHD, TENC1 | PLCG2_N, PTPN11_C, SH2D2A, SHF
18 | PVLSpYYSLPRS [C12] | CRK, CRKL, Sh2b, SYK_C | BRDG1, SHF
19 | YGALpYEGRNPG [H02] | – | SH3BP2, ZAP70_N
20 | AKTGpYENFIHL [B10] | GADS, GRB2, GRB7, MIST, PI3K1_N, SH2D2A, SH3BP2, TENC1 | BRDG1, BRK
21 | STVEpYSTVVHS [A11] | BRDG1, BRK, CRK, PTPN11_N, PTPN11_C, SH2D1B, SHC1, SHIP1 | ABL2, RIN1
22 | QGYVpYEAAQPE [H09] | VAV1 | ZAP70_N
23 | CLRRpYGYDSNL [F22] | BCAR3, BMX, BRDG1, CRK, CRKL, DAPP1, FER, GRB7, MATK, MIST, PLCG2_N, SHB, SHF, SHD, TENC1 | ITK, PLCG2_C, PTPN11_C, RIN1, SH2D2A, SH3BP2
24 | SSDSpYAVIDLK [G15] | SH2D1B, SHC1, SHIP1 | HCK
25 | RLEYpYESEKKW [D01] | SH3BP2 | BRDG1, FER, MIST, PTPN11_C, Sh2b, SH2D1B
26 | ADNDpYIIPLPD [A07] | BRK, DAPP1, PLCG2_N, PLCG2_C, SRC, VAV1 | HCK, LCK, LYN, PI3K1_N, RIN1, SH2D1B, YES

Row | Substance | SH2 Domains >3X | 2X < SH2 Domains < 3X
27 | SPGEpYVNIEFG [C16] | BLK, BMX, DAPP1, FGR, GADS, GRAP, GRB2, GRB7, ITK, MIST, PI3K1_N, PI3K1_C, PLCG2_C, PTPN11_N, PTPN11_C, RASA1_N, RASA1_C, Sh2b, SH2D2A, SHB, SHF, SHD, SHE, SYK_C, VAV1, YES | ABL1, ABL2, BRK, FYN, HCK, LCK, LYN, SH2D1B, SRC, TENC1
28 | SLDEpYTLMRAT [D14] | – | PI3K1_C
29 | WDTGpYDSDERR [G03] | SH3BP2, SRC | DAPP1, FER, HCK, ZAP70_N
30 | SNPEpYLSASDV [A19] | VAV1 | –
31 | AEDSpYGLVAPA [D06] | FGR, FYN, HCK, LCK, LYN, SH2D1B, SHC1, SHIP1, SRC, YES | BLK
32 | YELPpYNPATDD [H22] | SLNK | –
33 | RLEYpYENEKKW [B20] | ABL1, ABL2, BMX, BRK, FER, FGR, HCK, GADS, GRAP, GRB2, GRB7, MATK, MIST, PI3K1_N, PI3K1_C, RIN1, SH2D1B, SH2D2A, SH3BP2, SHF, TENC1, VAV1 | BCAR3, BRDG1, CRK, ITK, PLCG2_N, PTPN11_N, PTPN11_C, Sh2b, SHC1, SHD, SRC
34 | FESRpYQQPFED [H06] | ABL1, ABL2, CRK, CRKL, HCK, ITK, NCK1, RASA1_N, RASA1_C, VAV1 | MATK, PLCG2_N, SH2D2A, SRC
35 | LPNGpYPRYPSF [F24] | BRDG1, GRAP, GRB2, MIST, PTPN11_C, Sh2b, SHB, SHF | BCAR3, BMX, PLCG2_N, PLCG2_C, SHD, SYK_C, TENC1
36 | ATDLpYQVPPGP [H08] | CRK | CRKL
37 | VLVEpYAAKGNL [F08] | – | MIST, ZAP70_N
38 | QDSWpYQALLQL [B22] | ABL2, BCAR3, CRK, MATK, SH2D2A, SYK_C, TENC1, VAV1 | BMX, GADS, RIN1, Sh2b, SHD
39 | RGMEpYLASQKC [E24] | BRDG1, SHF | BCAR3, PLCG2_N, PLCG2_C, SHB, SHD, ZAP70_N
40 | NLREpYLQARRP [E08] | BRDG1, DAPP1, MIST, PLCG2_N, PTPN11_C, Sh2b, SHB, SHF, SHD, SYK_C, TENC1 | BCAR3, BMX, PTPN11_N, SHE
41 | PQGLpYDLPREP [H20] | ABL1, CRK, CRKL, NCK1, ZAP70_N | HCK
42 | ATDDpYAVPPPR [A02/H23] | CRK, CRKL, HCK | SRC
43 | TEPTpYFYVTDY [A14] | BRK, ITK, RASA1_N | MATK, PLCG2_N, SH2D1B, SYK_C
44 | CTGDpYMNMSPV [C09] | – | PI3K1_C
45 | SRGDpYMTMQMS [C19] | PI3K1_C | –
46 | LIGIpYRLCLTS [B24] | – | BCAR3, BRDG1, MIST, SHD
47 | VFTTpYSDVWSF [B13] | ABL1, ABL2, BRK, ITK, RASA1_N, RASA1_C, RIN1, SH2D1B, SH2D2A, SHC1 | BCAR3, CRK, NCK1, PI3K1_N, SHIP1
48 | SGTSpYGKLWTN [C08] | BCAR3, BMX, BRDG1, CRK, FER, MIST, PTPN11_C, SH2D1B, SHC1, SHF, SYK_C, TENC1 | CRKL, DAPP1, GADS, ITK, MATK, PLCG2_C, PTPN11_N, RIN1, Sh2b, SH3BP2, SHB, SHD, SHE, YES
49 | RTELpYAVIDIE [G10] | ABL2, BMX, ITK, MIST, PLCG2_C, RASA1_N, Sh2b, SH2D1B, SHB, SHF, SHE, SYK_C | ABL1, BRK, RASA1_C, SHD, YES
50 | YETDpYYRKGGK [B01] | BCAR3, BMX, BRDG1, BRK, ITK, PLCG2_N, RIN1, TENC1 | FER, MIST, PTPN11_C, SH2D2A, SHB, SHF, SHD, SHE, SYK_C
51 | YPEDpYGDIEIG [D17] | BMX, BRK, FGR, SLNK, SRC | BLK, FER, FYN, HCK, GRB7, ITK, LCK, LYN, RASA1_N, SH2D1B, SHC1, YES
